From publication PMC9332833 (Cancers, 2022)
“Also recorded” adds a separate entry of the source.

What was measured:
K562-MDR1 cells [1] = test: MTT viability test, K562-MDR1; type: cell-based, human; conditions: Homo sapiens; MTT, 48 h
Excerpt: The K562-MDR1 cell line was developed using increasing concentrations of the commonly used antimitotic drug vincristine on a polyclonal K562 population, as described earlier. […] The DMSO concentration in the culture was 0.1%. The vincristine dose was doubled every 2–3 weeks (at least twice for each experiment) after the cells reached confluence. Cell’s viability was above 90%, as confirmed by Muse Cell Analyzer (Merck Millipore, Burlington, MA, USA). The final concentration of vincristine reached was 0.1 μM. The increase in the K562-MDR1 population was confirmed by flow cytometry and PCR.
Cells were seeded in 96-well plates; after 24 h, medium with the appropriate drug concentration was added to each well. After 48 h, Tetrazolium Bromide (Sigma-Aldrich, St. Louis, MO, USA) was added to each well for 2–3 h. After that, cells were lysed and formazan crystals were dissolved. Absorbance was read using an iMark Microplate absorbance reader (Bio-Rad, Hercules, CA, USA). Results were calculated relative to cells treated with DMSO only. […]
Cells were seeded in 96-well plates at 7 × 10^3 cells/well in 50 µL of complete medium (for K562 or K562-MDR1) or at 50 × 10^3 cells/well in 50 µL of complete medium (CD34+ cells). After 24 hours, 50 µL of medium with the appropriate drug concentration was added to each well. The final DMSO concentration per well was 1% for K562 and K562-MDR1 and 0.1% for CD34+ cells. After 48 hours, 20 µL of Tetrazolium Bromide (Sigma-Aldrich, St. Louis, MO, USA) at a concentration of 5 mg/mL was added to each well. Cells were incubated for 2-3 hours in a cell culture incubator, and then 10% SDS with 1% HCl was added to each well to lyse the cells and dissolve the formazan crystals. Plates were […]

K562 cells [2] = test system: K562 cells; design: method as in PMID 26902600, PMID 31487824; conditions: chronic myelogenous (CML) K562 cells from blast crisis; cited from earlier work
[3] = Toxicity in Balb/c nude mice; type: in vivo
Description: […] The compound blood concentration was measured 15 min, 6, 12, and 24 h post-injection. For each time point, 4 mice were sacrificed. BK124.1 concentration in the bloodstream was analyzed using mass spectrometry. Toxicology was assessed by examining physiological and morphological changes at the injection site, the appearance of internal organs (liver, heart, kidneys, and spleen), blood tests, body mass, and animal behavior.

[4] = Stability of BK124.1 concentrate for injection; type: physicochemical; conditions: 1 mg BK124.1 in 50% Solutol HS 15/50% ethanol, 30-36 °C
Excerpt: Additional file 2: Supplementary methods
The antibodies (Ab) used in the flow cytometry and immunoblotti ng experiments are listed according to the targeted protein and the vendor. Antibodies: BD Transduction Laboratories - p38 (ref. 612288), p-p38 (ref. 612289); Cell Signalling Technologies - c-Abl (ref. 2862), Akt (pan) (C67E7) (ref. 4691), STAT5 […]
(ref. 9102); Santa Cruz Biotechnology - Lamin B1 (A11) (ref. sc-377000), JNK, (ref. sc-7345), p-JNK (ref. sc-6254); Sigma - α-tubulin (ref. T-6074). Biolegend, San Diego, CA, USA - CD34 (CD34-APC), CD38 (anti- […]
BK124.1 preparation for injection
In the first step, 50 µL of Solutol HS 15 and 50 µL of anhydrous ethanol 99.8% were added to 1 mg of BK124.1, to obtain a solution of 50% Solutol HS 15/50% ethanol. This solution was shaken (1-2 h) at 30-40 °C until BK124.1 was completely dissolved. This solution was stable for 48 hours at temperatures between 30-36 °C. This concentrate is sticky, has poor filtration and portioning properties, and so cannot be administered intravenously or intraperitoneally without dilution. Therefore, in the second step, the prepared concentrate was diluted with aqua pro injectione to obtain a concentration of 10% Solutol HS 15/10% ethanol. […]

K562 cells [5] = test: K562 in BK124.1 long term experiment (6 months), MDR1 induction; type: cell-based, human; conditions: 1 µM or 2 µM for at least 6 months
K562-MDR1 cells [6] = test: P-glycoprotein (CD243)/propidium iodide flow cytometry; type: cell-based, human
Description: BK124.1 or DMSO were added to cells and after 24 h incubation cells were harvested and stained with FITC Mouse Anti-Human P-glycoprotein (CD243) clone 17F9 (BD, Franklin Lakes, NJ, USA) or an appropriate isotype control. Propidium iodide was added to […]. Cells were analyzed on a BD FACSCalibur flow cytometer using CellQuest software (BD, Franklin Lakes, NJ, USA). […]
Flow cytometry analysis of CD243 (P-glycoprotein)
Cells were seeded at a concentration of 1-2 × 10^5 cells/mL in a 6- or 24-well plate. After 24 hours of pre-incubation, DMSO or test compounds in DMSO were added. The cells were then incubated for 24 hours. After this time, cells were harvested, washed with 0.5% BSA in PBS (Mg2+ and Ca2+ free), and labeled for 30 minutes on ice with FITC Mouse Anti-Human P-glycoprotein (CD243) clone 17F9 (BD, Franklin Lakes, NJ, USA) or an appropriate isotype control. Following incubation with the antibody, cells were stained with propidium iodide, washed with PBS and a nalyzed on a BD FACSCalibur flow cytometer using CellQuest software (BD, Franklin Lakes, NJ, USA). […]

CCC12C(=O)C(CC)(C(c3ccccc3)=C1c1ccccc1)C1C(=O)N(CC(O)CNC(C)C)C(=O)C12 (stereo not drawn) [BK124.1, 4-[2-hydroxy-3-(propan-2-ylamino)propyl]-1,7-diethyl-8,9-diphenyl-4-azatricyclo [5.2.1.02,6]dec-8-ene-3,5,10-trione]
IC50 (K562-MDR1 cells [1]): 2.16 µM
Toxicity towards human leukemia cells (K562 cells [2]): selectively toxic
Toxic effects in weight and internal organs' appearance ([3]; IP 40 mg/kg): some minor toxic effects
Toxicity at the injection site ([3]; intravenous administration): some signs of local toxicity in the tail
Time the solution was stable [4]: 48 h
Induction of MDR1 in standard K562 cells (K562 cells [5]): not able to induce MDR1; also recorded: unable to induce MDR1 expression
Proportion of K562-MDR1 cells, mean value (K562-MDR1 cells [6]; 5 µM, 24 h, DMSO control 33.6%): 68.3%
viability at 5 µM (K562-MDR1 cells [6]; Homo sapiens, 5 µM, 24 h, DMSO control 89.2%, read-out: Living cells (viability), mean value): 53.8%
MDR1 substrate (K562-MDR1 cells [6]; conclusion from K562-MDR1 data): not a MDR1 substrate
